# Measured values taken from patent US8044042B2, “Thienotriazolodiazepine compound and medicinal use thereof” (Mitsubishi Tanabe Pharma Corporation, priority 2005, dated 2011).
# Like-named read-outs stand apart in the source and are kept apart here.
# Assays:
# [1] = test system: CD28-dependent T cell growth; assay: Mouse T cell proliferation stimulated with anti-CD28 antibody and PMA (tritiumthymidine uptake); assay type: cell-based; conditions: for IC50: BALB/c mouse T cells, 10 ng/mL PMA and 250 ng/mL anti-CD28 antibody, tritiumthymidine uptake, read-out: CD28-dependent T cell growth suppressive action (IC50); for CD28-dependent T cell growth suppressive action (in words): mouse T cells stimulated with PMA and anti-CD28 antibody
# Procedure: The spleen was aseptically isolated from 6-7-week-old male BALB/c mice (CHARLES RIVER LABORATORIES JAPAN, INC.), and splenocyte suspension was prepared using RPMI1640 medium (manufactured by Sigma-Aldrich Ltd.). After hemolysis by a hypotonic treatment using a mixed solution of 0.83% aqueous ammonium chloride and Tris-HCl buffer (pH 7.65) at 9:1, a T cell concentrated fraction was obtained using a T cell concentrated column (manufactured by R&D systems). A cell suspension prepared using RPMI1640 medium containing 10% fetal calf serum (FCS, manufactured by Sigma-Aldrich Ltd.) was added to a flat-bottomed 96 well microtest plate (manufactured by Becton, Dickinson and Company) at 5×10^5 cells/well. Furthermore, a test compound diluted with a medium to the final concentration of 1-10000 nmol/L, 10 ng/mL PMA (manufactured by Sigma-Aldrich Ltd.) and 250 ng/mL anti-CD28 antibody (manufactured by BD pharmingen) were added, and the mixture was cultured under the conditions of 37° C., 5% carbon dioxide, 95% air for 20 hr. After the completion of culture, tritiumthymidine (specific activity: […], manufactured by MP Biochemicals) was added at 18.5 kBq/well, and the mixture was further cultured for 4 hr. Then, the cells were recovered in a glass fiber filter using a cell harvester (manufactured by Molecular Devices Corp.), the radioactivity taken into the cells was measured using a plate scintillation counter (microbeta 1460, manufactured by PerkinElmer), based on which the mouse T cell growth induced by stimulation with PMA and anti-CD28 antibody was measured. To be specific, suppressing rate (%)=(1−(radioactivity (cpm) of well added with test compound)/(radioactivity (cpm) of well without addition of test compound))×100 was calculated from the average amount of tritiumthymidine uptake (cpm) of T cells in each well added with various concentrations of test compound. In addition, based on the dose response curve obtained by plotting the average tritiumthymidine uptake amount (cpm) or suppressing rate on the vertical axis and the concentration on the transverse axis, the concentration of the compound (IC50) suppressing the value to 50% of that of the control group was determined by nonlinear regression.
# [2] = test system: TYPE II Collagen-Induced Arthritis in DBA/1J Mouse; assay: Type II collagen-induced arthritis in DBA/1J mouse; assay type: in vivo; conditions: 840 h; for inhibition in vivo at 3 mg/kg: 3 mg/kg oral, 2 weeks from booster, average arthritis score at 35 days after primary immunization, P <0.05, read-out: suppressing rate (%) of arthritis score
# Procedure: Bovine Type II collagen (purchased from collagen technical workshop) (100-200 μg) was mixed with complete Freund's adjuvant (manufactured by Sigma-Aldrich Ltd.) containing killed tuberculosis H37Ra. Using the resulting emulsion, 6 to 7-week-old male DBA/1J mice (CHARLES RIVER LABORATORIES JAPAN, INC.) were subcutaneously immunized at the tail root twice at 3 week intervals, whereby arthritis was developed. A test compound was suspended or dissolved in 0.5% carboxymethylcellulose (manufactured by Sigma-Aldrich Ltd.), and repetitively administered orally at a dose of 0.1-30 mg/kg body weight using an oral gavage needle for 2 weeks from the day of booster. As to this model, the symptoms of arthritis of four limbs were evaluated based on the following judgment criteria using the scores of from 0 to 4. The arthritis score of each mouse was shown by the total of the scores of four limbs (maximum: 16 points).
# As regards the arthritis score, each group (n=5-6) was evaluated using an average value and mean error, with a group administered only with a vehicle being control, and Mann-Whitney U test was used for statistical analysis, wherein p value of 0.05 or below was determined to be significant. In the following, the suppressive action of the compound of the present invention on mouse collagen induced arthritis is shown by the suppressing rate (%) (1−(average arthritis score of compound administration group)/(average arthritis score of control group)×100) calculated from the average arthritis score at 35 days after the primary immunization.
SMILES,"inhibition of T cell growth at 1 μM (in words) ([1]; 1 μM, calcineurin inhibitor)",IC50 ([1]; T-cell),CD28-dependent T cell growth suppressive action (in words) [1],inhibition in vivo at 3 mg/kg [2],"inhibition in vivo at 10 mg/kg ([2]; po, read-out: suppressing rate (%) of arthritis score)",IC50 [1]
"C=CC[C@@H]1/C=C(\C)C[C@H](C)C[C@H](OC)[C@H]2O[C@@](O)(C(=O)C(=O)N3CCCC[C@H]3C(=O)O[C@H](/C(C)=C/[C@@H]3CC[C@@H](O)[C@H](OC)C3)[C@H](C)[C@@H](O)CC1=O)[C@H](C)C[C@@H]2OC [Tacrolimus, tacrolimus, reference compound]",hardly inhibits the growth even at 1 μM,> 1000 nM,,,,
"COC(=O)C[C@@H]1N=C(c2ccc(Nc3ccccc3)cc2)c2c(sc(C)c2C)-n2c(C)nnc21 [Example 120, Methyl (S)-{2,3,9-trimethyl-4-(4-phenylaminophenyl)-6H-thieno[3,2-f][1,2,4]triazolo[4,3-a][1,4]diazepin-6-yl}acetate]",,1.1 nM,have a CD28-dependent T cell growth suppressive action,53.1%,,
"Cc1sc2c(c1C)C(c1ccc(-c3cccc(C#N)c3)cc1)=NCc1nnc(C)n1-2 [Example 253, 4-(3′-cyanobiphenyl-4-yl)-2,3,9-trimethyl-6H-thieno[3,2-f][1,2,4]triazolo[4,3-a][1,4]diazepin]",,100 nM,have a CD28-dependent T cell growth suppressive action,,46.4%,
"COC(=O)C[C@@H]1N=C(c2ccc(-c3ccccc3)cc2)c2c(sc(C)c2C)-n2c(C)nnc21 [Example 61, Methyl (S)-{4-biphenyl-2,3,9-trimethyl-6H-thieno[3,2-f][1,2,4]triazolo[4,3-a][1,4]diazepin-6-yl}acetate]",,,have a CD28-dependent T cell growth suppressive action,,,55 nM
"COC(=O)C[C@@H]1N=C(c2ccc(NC(=O)CCc3ccccc3)cc2)c2c(sc(C)c2C)-n2c(C)nnc21 [Example 311, Methyl (S)-{2,3,9-trimethyl-4-[4-(3-phenylpropionylamino)phenyl]-6H-thieno[3,2-f][1,2,4]triazolo[4,3-a][1,4]diazepin-6-yl}acetate]",,25 nM,have a CD28-dependent T cell growth suppressive action,85.2%,,
